# Results published in patent US20070160553A1, “Use of agents for the cosmetic treatment of keratin-containing material” (WELLA AG, priority 2004, published 2007).
# Several values for one entry are separate records, joined by “and”; a condition that tells them apart may be missing. Identical values can stand only once. Like-named read-outs stand apart in the source and are kept apart here.
# Key:
# [1] = active present in permanent wave products, compared to otherwise identically treated hair
# Excerpt: Tear strength is viewed as a parameter for determining damage to hair; the higher the force needed to tear a hair, the better is the hair quality.
# [2] = bleached hair, cycles until 63.2% of hairs are broken
# Excerpt: The measurements of rubbing resistance make it possible to draw conclusions concerning the resistance of the hair to mechanical stresses. The measuring principle consists of exposing individual hair fibers to repeated (small) mechanical stresses and measuring the number of repeating cycles needed to make the material break. A higher number of stressing cycles indicates a higher resistance of the hair to mechanical stresses. The evaluation of the hair resistance test results, which initially consists only of determining the number of stressing cycles to hair breakage for each individual hair, is carried out by Weibull's reliability analysis. According to Weibull, the breakage frequency (here: hair breakage) can be described by the following equation: H=1−exp[−(x/Θ)]b linearized: lnln[1/(1−H)]=b(ln x)−b(ln Θ) H=breakage frequency (=cumulated hair breakage), normalized to 1 (1=100%) X=lifetime variable (=cycles to hair breakage) Θ=characteristic lifetime (number of cycles until 63.2% of the hairs are broken) b=shape parameter, slope of the fitted straight lines.
# For the Weibull analysis, therefore, that data must be plotted as lnln(1/1−H) against Inx. After linear regression, the axial segment indicates b(ln Θ) and the slope gives b. The characteristic lifetime E is then obtained from exp[−(axial segment/slope)]. The longer the characteristic lifetime, the higher is the resistance of the hair to breakage.
# Another important parameter for determining the condition of the hair or the degree of damage to the hair is the determination of the rubbing resistance as a measure of the mechanical weakening of the hair (see legend for FIG. 1) [sic].
# To this end, after previous standardized bleaching, strands of human hair (of Caucasian origin), were subjected to the strongly weakening conditions of a permanent wave procedure or a hair tinting by standardized methods. Then, the ends of 20 individual hairs per sample, namely of 10 individual hairs per strand, were fastened to holders, and the rubbing resistance was measured.
# [3] = shampoo as in Example 6, 2.0 wt. % active; 20 hairs; control without active 12.0
# Description: The determination of the tear strength of hair, which is an indicator of the structural integrity of the hair cortex and thus a measure of the degree of damage, was carried out by tensile-elongation measurements common for these purposes. From each hair strand we selected 20 individual hairs and determined the individual hair diameters with a computer-controlled laser micrometer. Then, by means of a tensile-elongation tester (MTT 160/600 Series Miniature Tensile Tester, Serial No. 600.95.05.001, supplied by DIA-STRON Ltd, England), the force needed to tear the individual hairs was measured.
# From these individual tear strength measurements which because of the different hair diameters gave different values, the bundle tensile strength (BTS) was calculated by taking 0.08 mm for a hair diameter (average diameter). By including the hair density, finally, the conversion into the unit of bundle tensile strength (cN/tex) was performed. The higher the numerical value of the bundle tensile strength, the lower is the hair damage.
# [4] = Conventional hair-care effects (combability, luster, volume, friction); conditions: in appropriate formulations
# Excerpt: This is in stark contrast to the known hair-care actions of other representatives of this class of substances, for example of betaine (trimethylammonioacetate) or carnitine [3-hydroxy-4-(trimethylammonio)butyric acid]. […] Other hair-care criteria such as an increase in hair volume or an improvement in the hair fullness or hair styling were also not observed.
# Tests for determining the triboelectric properties have also shown that depending on the use concentration of compounds of formulas (I) and (II) the electrostatic chargability of hair was reduced. […] This is particularly surprising considering that in no comparative test did the formulation containing as active ingredient a compound of formula (I) and (II) show a reduction in the mechanical coefficient of friction. […] The protective function therefore is independent of the typical hair-care criteria and consists only of attenuating the effects of hair-damaging factors.
compound,measurement,setting,value
C[n+]1cccc(C(=O)[O-])c1.Cl [1-Methylpyridinium-3-carboxylate hydrochloride],antistatic effect,preparation containing 1% as the hydrochloride,statistically probable antistatic effect
C[n+]1cccc(C(=O)[O-])c1 [1-methylpyridinium-3-carboxylate],tear strength,[1],significant increase
same,hair strand volume after combing (electrostatic charge),"bleached strands, hair-treatment preparation with 0.5% active, 5 minutes, vs untreated control",obviously smaller volume than the untreated control hairs
same,Characteristic Lifetime,[2]; hair tinting agent + 0.1% active,increase
same,Characteristic Lifetime,"[2]; hair tinting agent + 0.1% active, listed as 1-methylpyridium-3-carboxylate",568
same,Characteristic Lifetime,[2]; hair tinting agent + 1% active,"even higher than those shown by the chemically untreated (unbleached, natural) hair"
same,Characteristic Lifetime,"[2]; hair tinting agent + 1% active, listed as 1-methyl-pyridinium-3-carboxylate",further increase
same,Characteristic Lifetime,"[2]; hair tinting agent + 1% active, listed as 1-methylpyridium-3-carboxytate",643
same,Characteristic Lifetime,"[2]; permanent wave formulation with 0.5% active, listed as 1-methylpyridium-3-carboxylate",546
same,bundle tensile strength (BTS),[3],12.64±0.4 cN/tex and 12.64 cN/tex
"C[N+](C)(C)CC(=O)[O-] [betaine, trimethylammonioacetate]",combability,[4],pronounced improvement
same,luster of the hair,[4],definitely improved
